# Measured values from ChEMBL document CHEMBL1201861, “Genomics of Drug Sensitity in Cancer screening data, Wellcome Trust Sanger Institute”.
# Columns and labels:
# Assay in all cases: cells
# Assay type in all cases: functional, cell-based
# Settings in all cases: Homo sapiens
# [1] = test system: RPMI-8226
# [2] = test system: K562
# [3] = test system: A4-Fuk;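 further: growth inhibition of A4-Fuk cells, read out by a cell viability assay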
# [4] = test system: OMC-1;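 further: growth inhibition of the OMC-1 cell line, measured by a cell viability assay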
# [5] = test system: no-11;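 further: growth inhibition of human NO-11 cells, read out with a cell viability assay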
# [6] = test system: ATN-1;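 further: growth inhibition of human ATN-1 cells, read out with a cell viability assay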
# [7] = test system: NCI-H69;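 further: growth inhibition of the cell line, read out with a cell viability assay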
# [8] = test system: EW-16;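 further: growth inhibition of human EW-16 cells, read out as cell viability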
# [9] = test system: NMC-G1;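 further: growth inhibition of the NMC-G1 cell line, measured with a cell viability read-out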
# [10] = test system: EC-GI-10
# [11] = test system: NCI-H226;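 further: cell viability read-out used to gauge growth inhibition of the cells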
# [12] = test system: CCRF-CEM;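 further: inhibition of CCRF-CEM cell growth, measured by a cell viability assay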
# [13] = test system: DU-4475
# [14] = test system: MFH-ino;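 further: growth inhibition of human MFH-ino cells, read out by a cell viability assay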
# [15] = test system: SK-MEL-1;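 further: growth inhibition of human SK-MEL-1 cells, read out by a cell viability assay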
# [16] = test system: 697
# [17] = test system: K5
# [18] = test system: 8-MG-BA;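 further: growth inhibition of 8-MG-BA cells, read out with a cell viability assay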
# [19] = test system: MMAC-SF;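 further: growth inhibition of human MMAC-SF cells, read out with a cell viability assay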
# [20] = test system: LS-1034
# [21] = test system: CGTH-W-1;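 further: growth inhibition of human CGTH-W-1 cells measured by cell viability assay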
# [22] = test system: CTB-1
# [23] = test system: KURAMOCHI;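 further: growth inhibition of KURAMOCHI cells, read out with a cell viability assay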
# [24] = test system: KS-1;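 further: growth inhibition of KS-1 cells, read out with a cell viability assay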
# [25] = test system: SW982;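 further: growth inhibition of SW982 cells, read out with a cell viability assay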
# [26] = test system: A101D;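 further: growth inhibition of the cell line, measured with a viability assay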
# [27] = test system: JVM-2;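 further: growth inhibition of JVM-2 cells determined by a cell viability assay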
# [28] = test system: EW-1;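 further: growth inhibition of the human EW-1 cell line, read out by a cell viability assay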
# [29] = test system: VA-ES-BJ;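 further: growth inhibition of the VA-ES-BJ cell line, read out by a cell viability assay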
# [30] = test system: KM-H2;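 further: growth inhibition of KM-H2 cells, read out by a cell viability assay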
# [31] = test system: KINGS-1;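 further: cell viability assay measuring suppression of KINGS-1 cell growth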
# [32] = test system: SK-NEP-1;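 further: growth inhibition of human SK-NEP-1 cells, read out by a cell viability assay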
# [33] = test system: KNS-42;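 further: growth inhibition of KNS-42 cells, read out with a cell viability assay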
# [34] = test system: BE-13;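 further: growth inhibition of human BE-13 cells, measured with a cell viability assay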
# [35] = test system: GOTO;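 further: growth inhibition of GOTO cells, read out by a cell viability assay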
# [36] = test system: SW872;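 further: growth inhibition of SW872 cells, read out by a viability assay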
# [37] = test system: COLO-824
# [38] = test system: TE-10;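 further: growth inhibition of TE-10 cells, measured by a cell viability assay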
# [39] = test system: AM-38;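 further: growth inhibition of AM-38 cells of human origin, read out by a cell viability assay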
# [40] = test system: NCI-H1838;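 further: growth inhibition of NCI-H1838 cells, determined with a cell viability readout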
# [41] = test system: NCI-H209;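 further: growth inhibition of human NCI-H209 cells, measured by a cell viability assay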
# [42] = test system: ONS-76;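 further: growth inhibition of human ONS-76 cells, read out with a cell viability assay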
# [43] = test system: LC-2-ad;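 further: growth inhibition of human LC-2-ad cells, read out with a cell viability assay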
# [44] = test system: MEG-01;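 further: growth inhibition of MEG-01 cells, read out by a cell viability assay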
# [45] = test system: SNU-C2B;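 further: cell viability readout used to measure compound-driven suppression of SNU-C2B cell proliferation, IC50 marking half-maximal growth inhibition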
# [46] = test system: J-RT3-T3-5;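 further: cell viability assay measuring growth inhibition of human J-RT3-T3-5 cells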
# [47] = test system: SF-268;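 further: growth inhibition of SF-268 cells determined with a cell viability assay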
# [48] = test system: HT
# [49] = test system: NCI-H1648;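 further: cell viability assay measuring inhibition of NCI-H1648 cell growth, from the Sanger screening data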
# [50] = test system: GI-1;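 further: growth inhibition of human GI-1 cells, measured with a cell viability readout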
# [51] = test system: TE-5;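 further: inhibition of cell growth, read out by a cell viability assay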
# [52] = test system: ACN;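 further: growth inhibition of the human ACN cell line, read out via cell viability testing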
# [53] = test system: U-266
# [54] = test system: SK-PN-DW;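 further: growth inhibition measured with a viability assay on these cells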
# [55] = test system: KLE;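 further: growth inhibition of human KLE cells, read out with a cell viability assay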
# [56] = test system: NTERA-2-cl-D1;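 further: inhibition of cell growth, measured with a cell viability assay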
# [57] = test system: TGBC1TKB;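 further: growth inhibition of TGBC1TKB cells, read out by a cell viability assay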
# [58] = test system: LOX IMVI
# [59] = test system: SJSA-1;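 further: growth inhibition of human SJSA-1 cells, read out through a cell viability measurement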
# [60] = test system: KALS-1
# [61] = test system: ES1
# [62] = test system: SCH
# [63] = test system: LAN-6
# [64] = test system: NCI-H1581
# [65] = test system: MOLT-16
# [66] = test system: MN-60
smiles,measurement,setting,value
COc1cc(Nc2c(C#N)cnc3cc(OCCCN4CCN(C)CC4)c(OC)cc23)c(Cl)cc1Cl [BOSUTINIB],IC50,[1],> 2000 nM
same,IC50,[2],> 2000 nM
same,IC50,[3],1310 nM
same,IC50,[4],> 2000 nM
same,IC50,[5],> 2000 nM
same,IC50,[6],> 2000 nM
same,IC50,[7],> 2000 nM
same,IC50,[8],1440 nM
same,IC50,[9],> 2000 nM
same,IC50,[10],> 2000 nM
same,IC50,[11],> 2000 nM
same,IC50,[12],> 2000 nM
same,IC50,[13],> 2000 nM
same,IC50,[14],> 2000 nM
same,IC50,[15],> 2000 nM
same,IC50,[16],456 nM
same,IC50,[17],> 2000 nM
same,IC50,[18],> 2000 nM
same,IC50,[19],> 2000 nM
same,IC50,[20],> 2000 nM
same,IC50,[21],> 2000 nM
same,IC50,[22],548 nM
same,IC50,[23],> 2000 nM
same,IC50,[24],> 2000 nM
same,IC50,[25],> 2000 nM
same,IC50,[26],1940 nM
same,IC50,[27],> 2000 nM
same,IC50,[28],> 2000 nM
same,IC50,[29],> 2000 nM
same,IC50,[30],> 2000 nM
same,IC50,[31],> 2000 nM
same,IC50,[32],972 nM
same,IC50,[33],> 2000 nM
same,IC50,[34],486 nM
same,IC50,[35],> 2000 nM
same,IC50,[36],> 2000 nM
same,IC50,[37],> 2000 nM
same,IC50,[38],> 2000 nM
same,IC50,[39],> 2000 nM
same,IC50,[40],> 2000 nM
same,IC50,[41],408 nM
same,IC50,[42],1680 nM
same,IC50,[43],> 2000 nM
same,IC50,[44],512 nM
same,IC50,[45],> 2000 nM
same,IC50,[46],1520 nM
same,IC50,[47],> 2000 nM
same,IC50,[48],> 2000 nM
same,IC50,[49],> 2000 nM
same,IC50,[50],> 2000 nM
same,IC50,[51],> 2000 nM
same,IC50,[52],> 2000 nM
same,IC50,[53],> 2000 nM
same,IC50,[54],> 2000 nM
same,IC50,[55],> 2000 nM
same,IC50,[56],> 2000 nM
same,IC50,[57],> 2000 nM
same,IC50,[58],1750 nM
same,IC50,[59],> 2000 nM
same,IC50,[60],> 2000 nM
same,IC50,[61],675 nM
same,IC50,[62],> 2000 nM
same,IC50,[63],> 2000 nM
same,IC50,[64],> 2000 nM
same,IC50,[65],> 2000 nM
same,IC50,[66],> 2000 nM
Cc1nc(Nc2ncc(C(=O)Nc3c(C)cccc3Cl)s2)cc(N2CCN(CCO)CC2)n1 [DASATINIB],IC50,[1],> 1280 nM
same,IC50,[2],< 5 nM
same,IC50,[3],> 1280 nM
same,IC50,[4],> 1280 nM
same,IC50,[5],502 nM
same,IC50,[6],> 1280 nM
same,IC50,[7],> 1280 nM
same,IC50,[8],762 nM
same,IC50,[9],116 nM
same,IC50,[10],> 1280 nM
same,IC50,[11],> 1280 nM
same,IC50,[12],> 1280 nM
same,IC50,[13],> 1280 nM
same,IC50,[14],47.2 nM
same,IC50,[15],> 1280 nM
same,IC50,[16],200 nM
same,IC50,[17],165 nM
same,IC50,[18],155 nM
same,IC50,[19],> 1280 nM
same,IC50,[20],> 1280 nM
same,IC50,[21],35.5 nM
same,IC50,[22],> 1280 nM
same,IC50,[23],34.9 nM
same,IC50,[24],27.3 nM
same,IC50,[25],11.1 nM
same,IC50,[26],1030 nM
same,IC50,[27],> 1280 nM
same,IC50,[28],> 1280 nM
same,IC50,[29],39 nM
same,IC50,[30],> 1280 nM
same,IC50,[31],167 nM
same,IC50,[32],> 1280 nM
same,IC50,[33],1240 nM
same,IC50,[34],> 1280 nM
same,IC50,[35],> 1280 nM
same,IC50,[36],41.6 nM
same,IC50,[37],> 1280 nM
same,IC50,[38],63.6 nM
same,IC50,[39],> 1280 nM
same,IC50,[40],> 1280 nM
same,IC50,[41],> 1280 nM
same,IC50,[42],430 nM
same,IC50,[43],25.9 nM
same,IC50,[44],< 5 nM
same,IC50,[45],> 1280 nM
same,IC50,[46],> 1280 nM
same,IC50,[47],174 nM
same,IC50,[48],> 1280 nM
same,IC50,[49],20.1 nM
same,IC50,[50],> 1280 nM
same,IC50,[51],> 1280 nM
same,IC50,[52],> 1280 nM
same,IC50,[53],> 1280 nM
same,IC50,[54],> 1280 nM
same,IC50,[55],113 nM
same,IC50,[56],123 nM
same,IC50,[57],61.6 nM
same,IC50,[58],315 nM
same,IC50,[59],> 1280 nM
same,IC50,[60],94.9 nM
same,IC50,[61],> 1280 nM
same,IC50,[62],> 1280 nM
same,IC50,[63],> 1280 nM
same,IC50,[64],> 1280 nM
same,IC50,[65],> 1280 nM
same,IC50,[66],> 1280 nM
C[C@]12O[C@H](C[C@]1(O)CO)n1c3ccccc3c3c4c(c5c6ccccc6n2c5c31)CNC4=O [LESTAURTINIB],IC50,[1],386 nM
same,IC50,[2],> 2000 nM
same,IC50,[3],82.7 nM
same,IC50,[4],1180 nM
same,IC50,[5],> 2000 nM
same,IC50,[6],104 nM
same,IC50,[7],> 2000 nM
same,IC50,[8],226 nM
same,IC50,[9],411 nM
same,IC50,[10],535 nM
same,IC50,[11],> 2000 nM
same,IC50,[12],> 2000 nM
same,IC50,[13],97.8 nM
same,IC50,[14],> 2000 nM
same,IC50,[15],> 2000 nM
same,IC50,[16],26.5 nM
same,IC50,[17],145 nM
same,IC50,[18],124 nM
same,IC50,[19],72.1 nM
same,IC50,[20],> 2000 nM
same,IC50,[21],43.6 nM
same,IC50,[22],497 nM
same,IC50,[23],> 2000 nM
same,IC50,[24],375 nM
same,IC50,[25],42.5 nM
same,IC50,[26],67 nM
same,IC50,[27],> 2000 nM
same,IC50,[28],1080 nM
same,IC50,[29],389 nM
same,IC50,[30],> 2000 nM
same,IC50,[31],547 nM
same,IC50,[32],112 nM
same,IC50,[33],> 2000 nM
same,IC50,[34],280 nM
same,IC50,[35],940 nM
same,IC50,[36],> 2000 nM
same,IC50,[37],> 2000 nM
same,IC50,[38],1480 nM
same,IC50,[39],> 2000 nM
same,IC50,[40],> 2000 nM
same,IC50,[41],36.7 nM
same,IC50,[42],136 nM
same,IC50,[43],257 nM
same,IC50,[44],456 nM
same,IC50,[45],1120 nM
same,IC50,[46],365 nM
same,IC50,[47],326 nM
same,IC50,[48],1130 nM
same,IC50,[49],> 2000 nM
same,IC50,[50],546 nM
same,IC50,[51],> 2000 nM
same,IC50,[52],77.7 nM
same,IC50,[53],145 nM
same,IC50,[54],394 nM
same,IC50,[55],> 2000 nM
same,IC50,[56],363 nM
same,IC50,[57],> 2000 nM
same,IC50,[58],298 nM
same,IC50,[59],216 nM
same,IC50,[60],689 nM
same,IC50,[61],95.3 nM
same,IC50,[62],> 2000 nM
same,IC50,[63],> 2000 nM
same,IC50,[64],356 nM
same,IC50,[65],89.8 nM
same,IC50,[66],372 nM
CCNC(=O)c1noc(-c2cc(C(C)C)c(O)cc2O)c1-c1ccc(CN2CCOCC2)cc1 [LUMINESPIB],IC50,[1],117 nM
same,IC50,[2],53.9 nM
same,IC50,[3],17 nM
same,IC50,[4],17.5 nM
same,IC50,[5],30.5 nM
same,IC50,[6],> 256 nM
same,IC50,[7],> 256 nM
same,IC50,[8],7.49 nM
same,IC50,[9],22.8 nM
same,IC50,[10],> 256 nM
same,IC50,[11],59.9 nM
same,IC50,[12],23.3 nM
same,IC50,[13],21.5 nM
same,IC50,[14],12.9 nM
same,IC50,[15],> 256 nM
same,IC50,[16],20.3 nM
same,IC50,[17],13.1 nM
same,IC50,[18],18.8 nM
same,IC50,[19],43 nM
same,IC50,[20],41.9 nM
same,IC50,[21],23.3 nM
same,IC50,[22],135 nM
same,IC50,[23],61.9 nM
same,IC50,[24],8.59 nM
same,IC50,[25],12.9 nM
same,IC50,[26],19.9 nM
same,IC50,[27],> 256 nM
same,IC50,[28],28.2 nM
same,IC50,[29],42.9 nM
same,IC50,[30],72.4 nM
same,IC50,[31],24.3 nM
same,IC50,[32],159 nM
same,IC50,[33],> 256 nM
same,IC50,[34],> 256 nM
same,IC50,[35],172 nM
same,IC50,[36],32.2 nM
same,IC50,[37],110 nM
same,IC50,[38],19.8 nM
same,IC50,[39],13 nM
same,IC50,[40],> 256 nM
same,IC50,[41],> 256 nM
same,IC50,[42],29.5 nM
same,IC50,[43],13.7 nM
same,IC50,[44],173 nM
same,IC50,[45],12.7 nM
same,IC50,[46],89.7 nM
same,IC50,[47],34 nM
same,IC50,[48],226 nM
same,IC50,[49],15 nM
same,IC50,[50],148 nM
same,IC50,[51],> 256 nM
same,IC50,[52],16.6 nM
same,IC50,[53],145 nM
same,IC50,[54],55.9 nM
same,IC50,[55],162 nM
same,IC50,[56],13.4 nM
same,IC50,[57],210 nM
same,IC50,[58],23.2 nM
same,IC50,[59],20.4 nM
same,IC50,[60],14.7 nM
same,IC50,[61],2.66 nM
same,IC50,[62],> 256 nM
same,IC50,[63],85 nM
same,IC50,[64],> 256 nM
same,IC50,[65],17.9 nM
same,IC50,[66],242 nM
